Experiment: excess molar enthalpy (molar enthalpy of mixing); xn = mol fraction of the nth substance listed
Settings: Liquid, Flow calorimetry

O=S1(=O)CCCC1 [sulfolane] + O
413.15 K, 1820 kPa
Settings | excess molar enthalpy [kcal/mol]
x2 = 0.0621 | 0.0968
x2 = 0.1183 | 0.17
x2 = 0.2159 | 0.284
x2 = 0.3676 | 0.405
x2 = 0.48 | 0.443
x2 = 0.5667 | 0.445
x2 = 0.6355 | 0.428
x2 = 0.6915 | 0.401
x2 = 0.738 | 0.37
x2 = 0.7772 | 0.337
x2 = 0.8395 | 0.272
x2 = 0.8648 | 0.241
x2 = 0.887 | 0.211
x2 = 0.9067 | 0.181
x2 = 0.9243 | 0.152
x2 = 0.9401 | 0.125
x2 = 0.9544 | 0.0985
x2 = 0.9674 | 0.0727
x2 = 0.9792 | 0.0476
x2 = 0.99 | 0.0232

CN1CCCC1=O [N-methylpyrrolidone] + CO
393.15 K, 1790 kPa
Settings | excess molar enthalpy [kcal/mol]
x2 = 0.0576 | -0.0354
x2 = 0.1114 | -0.0657
x2 = 0.2093 | -0.113
x2 = 0.2959 | -0.146
x2 = 0.3732 | -0.168
x2 = 0.4425 | -0.18
x2 = 0.5051 | -0.184
x2 = 0.5619 | -0.183
x2 = 0.6136 | -0.177
x2 = 0.6609 | -0.167
x2 = 0.7043 | -0.157
x2 = 0.7443 | -0.143
x2 = 0.7813 | -0.128
x2 = 0.8156 | -0.113
x2 = 0.8475 | -0.0968
x2 = 0.8772 | -0.0817
x2 = 0.905 | -0.0652
x2 = 0.931 | -0.0488
x2 = 0.9554 | -0.0323
x2 = 0.9784 | -0.016
x2 = 0.9893 | -0.00837
